{"source": "patent US8012935B2", "about": "“Synthetic peptides and methods for treating cancer invasion and metastasis” (priority 2002, dated 2011)", "key": {"[1]": {"tested_on": "human melanoma cells A2058", "assay": "MATRIGEL invasion and migration by melanoma cells A2058", "type": "cell-based", "protocol": "The inhibitory effects of these oligopeptides on the MATRIGEL™ invasion and migration through the MATRIGEL™ membrane by various cancer cells were evaluated using “Improved MATRIGEL™ Invasion Chamber” (Becton Dickinson, USA).\n(§1) The studies were conducted using “Improved MATRIGEL™ Invasion Chambers” (Becton Dickinson, USA).\n(§2) In studies with human melanoma cells, human fibroblasts-NHDF (Clonetics) were seeded on MATRIGEL™ inserts and allowed to reach confluence. This was done to closely simulate in vivo conditions surrounding cancer cells in the body. Human melanoma cells A2058 were then seeded on the insert. Conditioned media from the fibroblast culture supplemented with various levels of chosen oligopeptide were added to the chamber. The system was incubated for about 24 hours. At the end of the period the cells on the upper surface of the insert were wiped off. The cells that had invaded the MATRIGEL™ membrane and had migrated to the lower surface of the insert were stained with “quick stain” and were counted under the microscope. […] The inhibitory activity of the control was considered as “0”. The media from invasion assays were saved for zymogram studies."}, "[2]": {"tested_on": "human breast cancer cells MCF7", "assay": "MATRIGEL invasion and migration by breast cancer cells MCF7", "type": "cell-based", "details": "for inhibition of MATRIGEL invasion: MCF7", "protocol": "as §1, §2\n(§3) In studies with human breast cancer cells MCF7 the procedure was essentially similar to that used for melanoma cells, except that MRC5 (ATCC) fibroblasts were used in place of NHDF."}, "[3]": {"tested_on": "human breast cancer cells MDA-MB 231", "assay": "MATRIGEL invasion by breast cancer cells MDA-MB 231", "type": "cell-based", "details": "150 μM", "protocol": "as §1, §2, §3\nIn studies with human breast cancer cells MDA-MB 231 the fibroblast-MRC5 cells were plated in the wells. The rest of the procedure remained the same as in studies with MCF7 cells."}, "[4]": {"tested_on": "MMP-2 secreted by the cancer cells", "assay": "Zymogram studies of media from invasion assays", "type": "cell-based, human", "details": "zymogram gels", "protocol": "as §2\nThe media (25-30 μl) from various wells in invasion studies were applied to NOVEX® zymogram gels (Invitrogen). The gels were developed and stained as recommended by the manufacturer. The matrix metalloproteinases (MMPs) were identified on the basis of their known molecular weights."}, "[5]": {"details": "comparison of oligopeptides (FIG. 2), concentration not given, about 24 hours"}}, "data": [{"sequence": "GDVAPKTDKE (listed as Homo sapiens)", "values": [{"measurement": "inhibition of MATRIGEL invasion", "setting": "[1]; 100 μM concentration", "result": "did not show any activity"}]}, {"sequence": "LPPDVQRVD (listed as Homo sapiens)", "values": [{"measurement": "inhibition of MATRIGEL invasion", "setting": "[1]; [5]", "result": "about 20%"}]}, {"sequence": "PRKPKWDK (listed as Homo sapiens) [synthetic oligopeptide corresponding to amino acids 85 to 92 of MMP-2]", "values": [{"measurement": "inhibition of MATRIGEL invasion", "setting": "[1]; 50 μM (FIG. 3)", "result": "about 37%"}, {"measurement": "inhibition of MATRIGEL invasion", "setting": "[1]; 100 μM concentration", "result": 63, "unit": "%"}, {"measurement": "inhibition of MATRIGEL invasion", "setting": "[1]; 150 μM (FIG. 3)", "result": 73, "unit": "%"}, {"measurement": "inhibition of MATRIGEL invasion", "setting": "[1]; [5]", "result": 73, "unit": "%"}, {"measurement": "inhibition of MATRIGEL invasion", "setting": "[2]; 150 μM (FIG. 4)", "result": "about 70%"}, {"measurement": "inhibition of MATRIGEL invasion", "setting": "[2]; 200 μM (FIG. 4)", "result": "about 90%"}, {"measurement": "inhibition of the invasion of cancer cells", "setting": "[2]; summary statement, cell line and concentration not stated", "result": "about 90%"}, {"measurement": "inhibition of MATRIGEL invasion", "setting": "[3]", "result": "about 94%"}, {"measurement": "inhibitory effect on the amount of MMP-2 secreted", "setting": "[4]", "result": "did not show any inhibitory effect"}]}, {"sequence": "TMRKPRCGNPDVAN (listed as Homo sapiens) [reference compound]", "values": [{"measurement": "inhibition of MATRIGEL invasion", "setting": "[1]; [5]", "result": "about 11%"}]}]}
